# Reference: patent US7371751B2, “Thiazole derivatives” (Hoffmann-La Roche Inc., priority 2003, dated 2008)
# Target: T1, human cannabis CB1 receptor (Homo sapiens, UniProt P21554)
# T1 construct: expressed in transfected cells; host or cells: human embryonic kidney (HEK) cells, Semliki Forest Virus system, membrane preparation
# Test: Affinity for cannabinoid CB1 receptors, [3H]-CP-55,940 radioligand binding on HEK cell membrane preparations
# Conditions: not given
# Description: The affinity of the compounds of the invention for cannabinoid CB1 receptors was determined using membrane preparations of human embryonic kidney (HEK) cells in which the human cannabis CB1 receptor is transiently transfected using the Semliki Forest Virus system in conjunction with [3H]-CP-55,940 as radioligand. After incubation of a freshly prepared cell membrane preparation with the [3H]-ligand, with or without addition of compounds of the invention, separation of bound and free ligand was performed by filtration over glassfiber filters. Radioactivity on the filter was measured by liquid scintillation counting.
# T1 sequence (P21554 whole entry): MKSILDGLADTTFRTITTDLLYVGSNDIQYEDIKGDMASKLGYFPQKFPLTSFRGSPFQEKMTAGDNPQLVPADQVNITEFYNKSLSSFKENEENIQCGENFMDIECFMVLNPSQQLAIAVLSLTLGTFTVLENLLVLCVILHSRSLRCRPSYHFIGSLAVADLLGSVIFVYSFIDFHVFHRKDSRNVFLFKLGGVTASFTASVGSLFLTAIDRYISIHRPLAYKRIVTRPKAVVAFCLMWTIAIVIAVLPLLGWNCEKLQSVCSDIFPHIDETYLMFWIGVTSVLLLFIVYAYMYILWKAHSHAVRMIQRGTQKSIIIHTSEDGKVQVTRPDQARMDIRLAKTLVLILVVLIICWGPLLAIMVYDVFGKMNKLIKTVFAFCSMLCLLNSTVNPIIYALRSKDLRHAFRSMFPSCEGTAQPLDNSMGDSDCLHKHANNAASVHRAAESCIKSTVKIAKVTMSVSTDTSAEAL
row,Structure (SMILES),IC50 [nM]
1,"COc1ccc(N(C(=O)c2ccc(Cl)cc2Cl)c2nc(C(=O)NCc3ccccc3)cs2)cc1OC [Example 11, 2-[(2,4-Dichloro-benzoyl)-(3,4-dimethoxy-phenyl)-amino]-thiazole-4-carboxylic acidbenzylamide]",810
2,"O=C(c1csc(N(C(=O)c2ccc(Cl)cc2Cl)c2ccc(Cl)cc2)n1)N1CCCC1 [Example 6, 2,4-Dichloro-N-(4-chloro-phenyl)-N-[4-(pyrrolidine-1-carbonyl)-thiazol-2-yl]-benzamide]",610
3,"O=C(c1csc(N(C(=O)c2ccc(Cl)cc2Cl)c2ccc(OC(F)(F)F)cc2)n1)N1CCCC1 [Example 147, 2,4-Dichloro-N-[4-(pyrrolidine-1-carbonyl)thiazole-2-yl]-N-(4-trifluoromethoxy-phenyl)-benzamide]",490
4,"COCCN(CCOC)C(=O)c1csc(N(C(=O)c2ccc(Cl)cc2Cl)c2ccc(Cl)cc2)n1 [Example 33, 2-[(4-Chloro-phenyl)-(2,4-dichloro-benzoyl)-amino]-thiazole-4-carboxylic acid bis-(2-methoxy-ethyl)-amide]",550
5,"CC(C)(C)N(CCO)C(=O)c1csc(N(C(=O)c2ccc(Cl)cc2Cl)c2ccc(Cl)cc2)n1 [Example 95, 2-[(4-Chloro-phenyl)-(2,4-dichloro-benzoyl)-amino]-thiazole-4-carboxylic acid tert-butyl-(2-hydroxy-ethyl)-amide]",260

# Same assay, conditions: affinity for the CB1 receptor; [3H]-CP-55,940 as radioligand; HEK cell membranes; read-out: IC50
row,IC50 [nM],Structure (SMILES)
1,850,"COc1ccc(N(C(=O)c2ccccc2Cl)c2nc(C(=O)NC3CCCCC3)cs2)cc1OC [Example 18, 2-[(2-Chloro-benzoyl)-(3,4-dimethoxy-phenyl)-amino]-thiazole-4-carboxylic acidcyclohexylamide]"
2,810,O=C(NCCc1cnc[nH]1)c1csc(N(C(=O)c2ccc(Cl)cc2Cl)c2ccc(Cl)cc2)n1 [Example 43]
3,430,"O=C(c1cnc(N(C(=O)c2ccc(Cl)cc2Cl)c2ccc(Cl)cc2)s1)N1CCSCC1 [Example 138, 2,4-Dichloro-N-(4-chlor-o-phenyl)-N-[5-(thio-morpholine-4-car-bonyl)-thiazol-2-yl]-benz-amide]"

row,Structure (SMILES),IC50 [nM]
1,"CCOC(=O)c1csc(N(C(=O)c2ccc(Cl)cc2Cl)c2ccc(OC)c(OC)c2)n1 [Example 2, 2-[(2,4-Dichloro-benzoyl)-(3,4-dimethoxy-phenyl)-amino]-thiazole-4-carboxylic acid ethyl ester]",510
2,"CCCCCN(C)C(=O)c1csc(N(C(=O)c2ccc(Cl)cc2Cl)c2ccc(Cl)cc2)n1 [Example 27, 2-[(4-Chloro-phenyl)-(2,4-dichloro-benzoyl)-amino]-thiazole-4-carboxylic acid methyl-pentyl-amide]",520

# Test system: not given
# Test: not given
# Conditions: 5, 10 and 20 mg daily; compared to placebo; cited from earlier work
row,Structure (SMILES),body weight
1,Cc1c(C(=O)NN2CCCCC2)nn(-c2ccc(Cl)cc2Cl)c1-c1ccc(Cl)cc1 [SR 141716],significantly reduced body weight
